Patent US11324757B2, “Pharmaceutical composition for treatment of increased intraocular pressure” (NOVALIQ GMBH, priority 2010, dated 2022)
Values joined by “and” are separate entries in the source; they are usually repeats but may differ in a detail not shown here. Equal entries are not always repeated. Where two headings read alike, the source gives them in different places. Each block holds one compound with its values, some of them ahead of it.

Tests used:
[1] = descriptive term; cited from earlier work
Refractive index = format: physicochemical; conditions: selected SFA's, neat
[2] = Droplet size (weight and volume) from three droppers; format: physicochemical; conditions: 25° C.; for droplet volume, Glass pipette / droplet weight, Glass pipette: 2 mL glass Pasteur pipette; for droplet volume, Glass pipette / droplet volume, Injection needle / droplet volume, Eye dropper: calculated from weight; for droplet weight, Glass pipette / droplet weight, Injection needle / droplet weight, Eye dropper: mean ± SD of 10; for droplet volume, Injection needle / droplet weight, Injection needle: 20 G injection needle; for droplet volume, Eye dropper / droplet weight, Eye dropper: dropper of commercial eye drops (Hylo-Vision)
Method: The droplet size of selected SFA's in terms of weight and volume of droplets from three droppers was determined and compared to that of purified water. The devices used for dispensing the droplets were (a) a 2 mL Pasteur pipette (wall thickness 0.53 mm; external tip diameter: 1.50 mm; length: 150 mm) made of glass, (b) a 20 G (0.9 mm×50 mm) injection needle, and (c) a dropper from a commercial eye drops product (Hylo-Vision). The droplet weights were measured at 25° C. using a laboratory balance; the volumes were calculated. Each test was performed 10 times.

S. aureus (ATCC 6538) = test: Antimicrobial preservative effectiveness test (USP 32 <51>); format: cell-based, Staphylococcus aureus; conditions: for cfu/mL 0 h / cfu/mL 24 h / cfu/mL 48 h: approx. 22.5° C.
Method: (§1) An antimicrobial preservative effectiveness test in analogy to that of USP 32 <51> was carried out. Sample vials comprising […] or F6H8, respectively, were inoculated with Escherichia coli, Pseudomonas aeruginosa, Staphylococcus aureus, Candida albicans and Aspergillus niger and incubated at approx. 22.5° C.

[3] = Contact angle (wetting) on compressed drug tablets
C. albicans (ATCC 10231) = test: Antimicrobial preservative effectiveness test (USP 32 <51>); format: cell-based, Candida albicans; conditions: for cfu/mL 0 h / cfu/mL 24 h / cfu/mL 48 h: approx. 22.5° C.
Method: as §1

[4] = test system: P. aeruginosa (ATCC 9027); test: as above; format: cell-based, Pseudomonas aeruginosa; conditions: for cfu/mL 0 h / cfu/mL 24 h / cfu/mL 48 h: approx. 22.5° C.
Method: as §1

rabbit eyes (cornea) [5] = test system: rabbit eyes (cornea)
E. coli (ATCC 8739) = test: Antimicrobial preservative effectiveness test (USP 32 <51>); format: cell-based, Escherichia coli; conditions: for cfu/mL 0 h / cfu/mL 24 h / cfu/mL 48 h: approx. 22.5° C.
Method: as §1

A. niger (ATCC 16404) = test: as above; format: cell-based, Aspergillus niger; conditions: for cfu/mL 0 h / cfu/mL 24 h / cfu/mL 48 h / cfu/mL 6 d: approx. 22.5° C.
Method: as §1

[6] = typical values for comparison; water at room temperature (RT); cited from earlier work
[7] = Solubility of latanoprost in F4H5/ethanol by HPLC; format: physicochemical; conditions: F4H5/ethanol mixture (99:1 by weight), organic solvent or mixture, thermodynamic from solid; in mixture of F4H5 and ethanol (ratio 99:1 by weight)
Method: In a separate experiment, the solubility of latanoprost in a mixture of F4H5 and ethanol (ratio 99:1 by weight) was determined by HPLC according to Ph.Eur.2.2.29 after rotation evaporation of the solvent methyl acetate in vacuo, addition of the solvent under examination of the residue and determination of the dissolved amount.

rabbit eyes (cornea) [8] = test: Ex-vivo eye irritation test (EVEIT), corneal lesions by abrasion
[9] = on fenofibrate tablet (150 mg, 15-20 kN, 13 mm)
[10] = on trospium chloride tablet (150 mg, 15-20 kN, 13 mm)

Refractive index (Refractive index): 1,308
Compound: CCCCC(F)(F)C(F)(F)C(F)(F)C(F)(F)F [Example F4H4]

Refractive index (Refractive index): 1,334
Compound: CCCCCCC(F)(F)C(F)(F)C(F)(F)C(F)(F)F [Example F4H6]

Refractive index (Refractive index): 1,3357
Compound: CCCCCCCC(F)(F)C(F)(F)C(F)(F)C(F)(F)F [Example F4H7]

Refractive index (Refractive index): 1,3224
Compound: CCCCCCC(F)(F)C(F)(F)C(F)(F)C(F)(F)C(F)(F)C(F)(F)F [Example F6H6]

Refractive index (Refractive index): 1,3432
droplet volume, Glass pipette [2]: 5.0 ± 0.4 µL
droplet weight, Glass pipette [2]: 6.6 ± 0.6 mg
droplet volume, Injection needle [2]: 2.5 ± 0.1 µL
droplet weight, Injection needle [2]: 3.4 ± 0.2 mg
droplet volume, Eye dropper [2]: 10.3 ± 0.3 µL
droplet weight, Eye dropper [2]: 13.7 ± 0.4 mg
contact angle [3, 9]: not measurable
contact angle [3, 10]: not measurable
Change of lesion size (rabbit eyes (cornea) [5]): −100.0%
Final size of corneal lesions (rabbit eyes (cornea) [5]): 0.00 mm^2
healing of corneal lesions (rabbit eyes (cornea) [5]): all lesions healed fully
Compound: CCCCCCCCC(F)(F)C(F)(F)C(F)(F)C(F)(F)C(F)(F)C(F)(F)F [Example F6H8]
cfu/mL 0 h (S. aureus (ATCC 6538)): 2 900 cfu/mL
Change in log steps 24 h (S. aureus (ATCC 6538)): ≤−1.4 log steps
cfu/mL 24 h (S. aureus (ATCC 6538)): <100 cfu/mL
Change in log steps 48 h (S. aureus (ATCC 6538)): ≤−1.4 log steps
cfu/mL 48 h (S. aureus (ATCC 6538)): <100 cfu/mL
cfu/mL 0 h (C. albicans (ATCC 10231)): 1 500 cfu/mL
Change in log steps 24 h (C. albicans (ATCC 10231)): ≤−1.2 log steps
cfu/mL 24 h (C. albicans (ATCC 10231)): <100 cfu/mL
Change in log steps 48 h (C. albicans (ATCC 10231)): ≤−1.1 log steps
cfu/mL 48 h (C. albicans (ATCC 10231)): <100 cfu/mL
cfu/mL 0 h [4]: 1 600 cfu/mL
Change in log steps 24 h [4]: ≤−1.2 log steps
cfu/mL 24 h [4]: <100 cfu/mL
Change in log steps 48 h [4]: ≤−1.2 log steps
cfu/mL 48 h [4]: <100 cfu/mL
morphological and histological evaluation of cornea (rabbit eyes (cornea) [5]): dense stromata with very few clefts and well-arranged keratocytes
cfu/mL 0 h (E. coli (ATCC 8739)): 1 600 cfu/mL
Change in log steps 24 h (E. coli (ATCC 8739)): ≤−1.2 log steps
cfu/mL 24 h (E. coli (ATCC 8739)): <100 cfu/mL
Change in log steps 48 h (E. coli (ATCC 8739)): ≤−1.2 log steps
cfu/mL 48 h (E. coli (ATCC 8739)): <100 cfu/mL
cfu/mL 0 h (A. niger (ATCC 16404)): 1 500 cfu/mL
Change in log steps 24 h (A. niger (ATCC 16404)): ≤−1.2 log steps
cfu/mL 24 h (A. niger (ATCC 16404)): <100 cfu/mL
Change in log steps 48 h (A. niger (ATCC 16404)): ≤−1.2 log steps
cfu/mL 48 h (A. niger (ATCC 16404)): <100 cfu/mL
Change in log steps 6 d (A. niger (ATCC 16404)): ≤−1.2 log steps
cfu/mL 6 d (A. niger (ATCC 16404)): <100 cfu/mL

Final size of corneal lesions (rabbit eyes (cornea) [5]): >60 mm^2
Initial size of corneal lesions (rabbit eyes (cornea) [5]): 16.05 mm^2
healing of corneal lesions (rabbit eyes (cornea) [5]): rapid growth of the lesions
Compound: benzalkonium chloride [BAC, reference compound]
morphological and histological evaluation of cornea (rabbit eyes (cornea) [5]): complete disintegration of the corneal epithelium

More lines, now with the values behind:

Compound: CCNC(=O)CCC/C=C\C[C@@H]1[C@@H](/C=C/[C@@H](O)CCc2ccccc2)[C@H](O)C[C@@H]1O [Bimatoprost, (Z)-7-[(1R,2R,3R,5S)-3,5-Dihydroxy-2-[(1E,3S)-3-hydroxy-5-phenyl-1-pentenyl]cyclopentyl]-N-ethyl-5-heptenamide]
solubility in water [1]: slightly soluble

Compound: CCCCCC(F)(F)C(F)(F)C(F)(F)C(F)(F)F [Example F4H5]
Refractive index (Refractive index): 1,3204
droplet volume, Glass pipette [2]: 4.7 ± 0.3 µL
droplet weight, Glass pipette [2]: 6.0 ± 0.4 mg
droplet volume, Injection needle [2]: 2.0 ± 0.3 µL
droplet weight, Injection needle [2]: 2.6 ± 0.4 mg
droplet volume, Eye dropper [2]: 9.6 ± 0.2 µL
droplet weight, Eye dropper [2]: 12.4 ± 0.2 mg
cfu/mL 0 h (S. aureus (ATCC 6538)): 2 900 cfu/mL
Change in log steps 24 h (S. aureus (ATCC 6538)): ≤−1.4 log steps
cfu/mL 24 h (S. aureus (ATCC 6538)): <100 cfu/mL
Change in log steps 48 h (S. aureus (ATCC 6538)): ≤−1.4 log steps
cfu/mL 48 h (S. aureus (ATCC 6538)): <100 cfu/mL
contact angle [3, 9]: not measurable
contact angle [3, 10]: not measurable
cfu/mL 0 h (C. albicans (ATCC 10231)): 1 500 cfu/mL
Change in log steps 24 h (C. albicans (ATCC 10231)): ≤−1.2 log steps
cfu/mL 24 h (C. albicans (ATCC 10231)): <100 cfu/mL
Change in log steps 48 h (C. albicans (ATCC 10231)): ≤−1.1 log steps
cfu/mL 48 h (C. albicans (ATCC 10231)): <100 cfu/mL
cfu/mL 0 h [4]: 1 600 cfu/mL
Change in log steps 24 h [4]: ≤−1.2 log steps
cfu/mL 24 h [4]: <100 cfu/mL
Change in log steps 48 h [4]: ≤−1.2 log steps
cfu/mL 48 h [4]: <100 cfu/mL
morphological and histological evaluation of cornea (rabbit eyes (cornea) [5]): entirely clear at the end of the tests, with healthy and smooth surface morphology
penetration into the cornea (OCT imaging) (rabbit eyes (cornea) [5]): no indication of penetration
tolerability by the eye (rabbit eyes (cornea) [5]): better tolerated than culture medium
cfu/mL 0 h (E. coli (ATCC 8739)): 1 600 cfu/mL
Change in log steps 24 h (E. coli (ATCC 8739)): ≤−1.2 log steps
cfu/mL 24 h (E. coli (ATCC 8739)): <100 cfu/mL
Change in log steps 48 h (E. coli (ATCC 8739)): ≤−1.2 log steps
cfu/mL 48 h (E. coli (ATCC 8739)): <100 cfu/mL
cfu/mL 0 h (A. niger (ATCC 16404)): 3 000 cfu/mL
Change in log steps 24 h (A. niger (ATCC 16404)): ≤−1.4 log steps
cfu/mL 24 h (A. niger (ATCC 16404)): <100 cfu/mL
Change in log steps 48 h (A. niger (ATCC 16404)): ≤−1.2 log steps
cfu/mL 48 h (A. niger (ATCC 16404)): <100 cfu/mL
Change in log steps 6 d (A. niger (ATCC 16404)): ≤−1.2 log steps
cfu/mL 6 d (A. niger (ATCC 16404)): <100 cfu/mL

Compound: CCCCCCCCC(F)(F)C(F)(F)C(F)(F)C(F)(F)F [Example F4H8]
Refractive index (Refractive index): 1,348

Compound: CCC(F)(F)C(F)(F)C(F)(F)C(F)(F)C(F)(F)C(F)(F)F [Example F6H2]
Refractive index (Refractive index): 1,295

Compound: CCCCC(F)(F)C(F)(F)C(F)(F)C(F)(F)C(F)(F)C(F)(F)F [Example F6H4]
Refractive index (Refractive index): 1,306

Compound: CCCCCCCC(F)(F)C(F)(F)C(F)(F)C(F)(F)C(F)(F)C(F)(F)F [Example F6H7]
Refractive index (Refractive index): 1,3366

Compound: CCCCCCCCCC(F)(F)C(F)(F)C(F)(F)C(F)(F)C(F)(F)C(F)(F)F [Example F6H9]
Refractive index (Refractive index): 1,3494

Compound: O [Water, reference compound]
droplet volume, Glass pipette [2]: 31.3 ± 1.4 µL
droplet weight, Glass pipette [2]: 31.2 ± 1.4 mg
droplet volume, Injection needle [2]: 11.1 ± 0.9 µL
droplet weight, Injection needle [2]: 11.0 ± 0.9 mg
droplet volume, Eye dropper [2]: 36.1 ± 2.2 µL
droplet weight, Eye dropper [2]: 36.0 ± 2.2 mg
Refractive index [6]: 1.333
contact angle [3, 9]: 92.5 °

Compound: CC(C)OC(=O)CCC/C=C\C[C@@H]1[C@@H](CC[C@@H](O)CCc2ccccc2)[C@H](O)C[C@@H]1O [latanoprost, isopropyl-(Z)-7[(1R,2R,3R,5S)3,5-dihydroxy-2-[(3R)-3-hydroxy-5-phenylpentyl]cyclopentyl]-5-heptenoate]
solubility in water [1]: practically insoluble
solubility [7]: 57 µg/mL

Compound: CC(C)OC(=O)CCCC=CCC1C(O)CC(O)C1C=CC(O)COc1cccc(C(F)(F)F)c1 (stereo not shown) [travoprost, propan-2-yl 7-[3,5-dihydroxy-2-[3-hydroxy-4-[3-(trifluoromethyl)phenoxy]-but-1-enyl]-cyclopentyl]hept-5-enoate]
solubility in water [1]: practically insoluble

Compound: CCCCCCCC(=O)CC[C@@H]1[C@@H](C/C=C\CCCC(=O)O)[C@@H](O)C[C@H]1O [unoprostone]
solubility in water [1]: practically insoluble

Compound: hyaluronic acid [HA]
morphological and histological evaluation of cornea (rabbit eyes (cornea) [8]; at end of test): entirely clear at the end of the tests, with healthy and smooth surface morphology
Initial size of corneal lesions (rabbit eyes (cornea) [8]; before the test, separate runs): 13.22 mm^2 and 16.03 mm^2 and 14.87 mm^2
healing of corneal lesions (rabbit eyes (cornea) [8]; ex-vivo rabbit eye, 3 days, fluorescein staining): Substantial healing
Change of lesion size (rabbit eyes (cornea) [8]; final vs initial size, 3 days, separate runs): −97.3% and −98.5% and −100%
